Experimental data: patent US11406589B2, “Cutibacterium granulosum strain, and composition comprising such strain or culture thereof for preventing or treating acne” (GENOME AND COMPANY, priority 2018, dated 2022)

How the values were obtained:
filaggrin = assay: Skin barrier function: filaggrin RNA expression in HaCaT cell line; assay type: cell-based, human; conditions: 24 hours, retinoic acid 1 μM (positive control)
claudin-1 = assay: Skin barrier function: claudin-1 RNA expression in HaCaT cell line; assay type: cell-based, human; conditions: 24 hours, retinoic acid 1 μM (positive control)
[1] = tested on: HAS3 (hyaluronic acid synthase); assay: Skin moisturizing function: HAS3 RNA expression in HaCaT cell line; assay type: cell-based, human; conditions: 24 hours, retinoic acid 1 μM (positive control)
Experimental: (§1) To investigate a function for a skin moisturizing effect by GENSCO2 fermented filtrates, it was confirmed that the fermented filtrates of GENSCO2 were treated to the HaCaT cell line by % to the cell culture solution, and then were reacted for 24 hours to confirm the expression of HAS3 (hyaluronic acid synthase) and aquaporin which were markers of the skin moisturizing function on RNA.

aquaporin = assay: Skin moisturizing function: aquaporin RNA expression in HaCaT cell line; assay type: cell-based, human; conditions: 24 hours, retinoic acid 1 μM (positive control)
Experimental: as §1

[2] = tested on: Cutibacterium acnes ATCC 6919; assay: Growth inhibition, overlay clear zone test; assay type: cell-based; conditions: overlay on RCM agar, about 72 hours; triclosan positive control 200 mg/ml
Description: (§2) The effect of growth inhibition of S. aureus and C. acnes was confirmed by observing formation of a clear zone. […] The experiment was progressed, expecting that S. aureus and C. acnes around Cutibacterium granulosum GENSC02 could not grow and they became transparent, if Cutibacterium granulosum GENSC02 had the effect of inhibiting the growth of bacteria. The Cutibacterium granulosum GENSC02 culture broth was collected with a platinum loop and was anaerobically cultured in a thin RCM agar plate at 37° C. for 72 hours by drawing a line about 2.5 cm. After confirming that Cutibacterium granulosum GENSC02 sufficiently grew, S. aureus and C. acnes strains adjusted to 10^4 cfu/ml were inoculated in 10 ml RCM agar at about 45° C. which was not yet solidified, and they were well suspended before the medium was hardened, and they were evenly solidified by pouring them on the agar plate in which Cutibacterium granulosum GENSC02 grew. In the solidified agar plate, S. aureus and C. acnes were further cultured anaerobically at 37° C. for about 40 hours and about 72 hours, respectively, to observe the size of the clear zone appearing around Cutibacterium granulosum GENSC02. As the negative control group, phosphate-buffered saline (PBS) was used, and as the positive control group, triclosan was used, and S. aureus and C. acnes were treated at an amount of 10 mg/ml and 200 mg/ml, respectively.

[3] = tested on: Staphylococcus aureus KCTC 1621; assay: Growth inhibition, overlay clear zone test; assay type: cell-based; conditions: overlay on RCM agar, about 40 hours; triclosan positive control 10 mg/ml
Description: as §2

Compound | expression of filaggrin (filaggrin) [times] | expression of claudin-1 (claudin-1) [times] | expression of HAS3 (hyaluronic acid synthase) [1] | expression of aquaporin (aquaporin) | growth inhibition of C. acnes (clear zone) [2] | growth inhibition of S. aureus (clear zone) [3]
CC1=C(/C=C/C(C)=C/C=C/C(C)=C/C(=O)O)C(C)(C)CCC1 [retinoic acid] | 1.5 | 1.5 | 2˜4 times | 2˜4 times |  | 
Oc1cc(Cl)ccc1Oc1ccc(Cl)cc1Cl [triclosan] |  |  |  |  | much smaller area than GENSC02 treatment | much smaller area than GENSC02 treatment
